Data published in PMC9240354, “Pharmacokinetics, Pharmacodynamics and Antiviral Efficacy of the MEK Inhibitor Zapnometinib in Animal Models and in Humans” (Frontiers in Pharmacology, 2022).
Where two headings read alike, the source gives them in different places.

Legend:
[1] = mice
MEK [2] = assay: MEK inhibition in PBMCs of treated mice (pERK/ERK, Wes); assay type: in vivo, C57BL/6 mice
Protocol: (§1) PBMCs were isolated from the same blood samples (30 µl mouse blood, 50 µl hamster blood, or 1 ml dog blood) used for pharmacokinetic analysis. After plasma separation as described in the section above (Blood sampling and preparation of plasma samples), the remaining red blood cells were lysed by adding 1 volume of red blood cell (RBC) lysis buffer (Thermo Fisher Scientific, Waltham, MA, United States) (300 µl for mice, 500 µl for hamster, and 10 ml for dogs). The samples were incubated for 15 min at RT and centrifuged at 500 x g for 5 min (RT). The supernatant was removed completely, and the pellet was washed twice with PBS. The PBMC cell pellets were store at −80°C until further analysis. PBMCs of 8 ml human blood were isolated using CPT^TM tubes. After a 20-min centrifugation at 1,650 x g at room temperature, the plasma was collected for PK analysis as described in the section above (Blood sampling and preparation of plasma samples). […]
(§2) The pharmacodynamic assessment was performed using the Wes™ (Simple Western™) system which uses capillary electrophoresis to separate, identify and quantify proteins of interest. A chemiluminescence signal for each identified protein is detected and the area under the peak is calculated, which is then used for quantification. The 0.1x Sample Buffer, 400 mM dithiothreitol (DTT) solution, 5x Fluorescence Master Mix, and the Biotinylated Ladder (ProteinSimple®, Abingdon, Oxford, United Kingdom) were prepared according to manufacturer’s instructions. […] Then the 5x Fluorescence Master Mix in DTT (ProteinSimple®) was added, and the samples were denatured for 5 min at 95°C, loaded onto the assay plate and analyzed using specific antibodies. […] The anti-rabbit secondary antibody (Cat# DM-001) was also purchased from ProteinSimple® and was ready to use. Data were analyzed with Compass software for simple western (ProteinSimple®). Using the ratio of pERK to ERK of each sample compared to control (pre-dose), the level of ERK phosphorylation was calculated and then converted into the percentage level of MEK inhibition.

clinical = details: both, human, in vivo; for AUC(0-t): healthy volunteers, n = 8
[3] = pharmacokinetics, summary regardless of species; assay type: in vivo, mice, hamsters, dogs, human; details: regardless of species or formulation
Protocol: Pharmacokinetic analysis of the mouse plasma samples was performed using standard procedures at Prolytic GmbH (Frankfurt, Germany). Hamster plasma samples were analyzed at Synovo GmbH (Tuebingen, Germany) using HPLC MS/MS (Agilent 1260 HPLC with Sciex API4500) with linear response for plasma concentrations between 15 nM and 33 µM (6.1 ng/ml to 13.5 μg/ml). Pharmacokinetic analyses of the dog plasma samples were performed at Pharmascience Inc. (Montreal, Canada) using an HPLC MS/MS method for the determination of zapnometinib plasma concentrations. The validated calibration range for this assay is from 0.6 μg/ml to […] for which all validation requirements were successfully evaluated. Regressions, calibration standard, quality control sample, animal sample result tables, acquisition methods and chromatograms were generated by Applied Biosystems Analyst^TM software, version 1.6.2. Plasma concentrations of zapnometinib of the human samples were determined at SGS Life Sciences (Bioanalysis Department, Wavre, Belgium) using a validated HPLC MS/MS method with a lower limit of quantification of 10 ng/ml for the analyte zapnometinib. Statistical analysis was performed by SGS (demography and safety analyses, exposure, and compliance) using SAS® version 9.4 (SAS Institute Inc., Cary, NC, United States).

[4] = Syrian hamsters
human PBMCs = details: read-out: CC50 cytotoxicity, ref Laure et al., 2020; cited from earlier work
MEK [5] = assay: MEK inhibition in PBMCs of treated Syrian hamsters (pERK/ERK, Wes); assay type: in vivo; details: hamster PBMCs
Protocol: as §1, §2

## O=C(O)c1ccc(F)c(F)c1Nc1ccc(I)cc1Cl [zapnometinib, 2-(2-Chloro-4-Iodophenylamino)-N-3,4-Difluoro benzoic acid]
[1]; 25 mg/kg p.o. twice, t = 10 h
  plasma concentration two hours after the second administration: 101000 ± 16000 ng/mL
[1]; 25 mg/kg p.o., t = 8 h
  plasma concentration prior to the second treatment: 36000 ± 8000 ng/mL
MEK [2]; 2 h after first treatment
  MEK inhibition, first maximum: 72 ± 10%
MEK [2]; 22 h after first treatment (14 h after second)
  MEK inhibition, second maximum: 80 ± 5%
MEK [2]; t = 24 h
  MEK inhibition at end of observation period: 66 ± 19%
clinical
  half-life: 19 h
clinical; po, 100 mg
  Cmax: 9000 ± 2000 ng/mL
  Tmax: 2 h
  half-life: 19.6 ± 5.3 h
clinical; po, 100 mg, AUC0-t, single oral dose 100 mg
  AUC(0-t): 115 ± 10 µg·h/mL
clinical; po, 100 mg, AUC0–24 h, single oral dose 100 mg
  AUC(0-t): 84 ± 9 µg·h/mL
clinical; po, 300 mg
  Cmax: 13000 ± 4000 ng/mL
  Tmax: 4 h
  half-life: 19.8 ± 5.8 h
clinical; po, 300 mg, AUC0-t, single oral dose 300 mg
  AUC(0-t): 241 ± 18 µg·h/mL
clinical; po, 300 mg, AUC0–24 h, single oral dose 300 mg
  AUC(0-t): 157 ± 16 µg·h/mL
clinical; po, 600 mg
  Cmax: 35000 ± 7000 ng/mL
  Tmax: 4 h
  half-life: 21.9 ± 6.8 h
clinical; po, 600 mg, AUC0-t, single oral dose 600 mg
  AUC(0-t): 617 ± 51 µg·h/mL
clinical; po, 600 mg, AUC0–24 h, single oral dose 600 mg
  AUC(0-t): 411 ± 44 µg·h/mL
clinical; po, 900 mg
  Cmax: 46000 ± 16000 ng/mL
  Tmax: 4 h
  half-life: 23.7 ± 8.2 h
clinical; po, 900 mg, AUC0-t, single oral dose 900 mg
  AUC(0-t): 1000 µg·h/mL
clinical; po, 900 mg, AUC0–24 h, single oral dose 900 mg
  AUC(0-t): 629 ± 83 µg·h/mL
[3]
  time to maximum plasma concentration (Cmax): 2 to 4 h
[4]; 15 mg/kg BID p.o.
  mean plasma concentration at 24 h: 1000 ± 200 ng/mL
[4]; 15 mg/kg BID p.o., before second dose
  plasma concentration 12 h after the first treatment: 2000 ± 100 ng/mL
[4]; 60 mg/kg OD p.o.
  mean plasma concentration at 24 h: 200 ± 600 ng/mL
Human PBMCs
  CC50: 322 µM
MEK [5]; 15 mg/kg BID
  MEK inhibition 12 h after the first treatment: 25 ± 15%
MEK [5]; 15 mg/kg BID, 15 mg/kg
  MEK inhibition at 24 h: 43 ± 8%
MEK [5]; 60 mg/kg OD
  MEK inhibition at 24 h: 55 ± 26%
